Molecules are shown by their SMILES.

A short description of series [1]: Cryopreserved PHH assay, cell viability by CellTiter-Glo. It counts as cell-based. To be noted: human, cryopreserved primary human hepatocytes (PHH), day 10, CellTiter-Glo. The protocol: (§1) The inhibitory effect of the compounds on HBV was evaluated by real-time quantitative qPCR assay (real time-qPCR) to detect the HBV DNA content in human primary hepatocytes (PHH) culture supernatant, and ELISA to detect the hepatitis B surface antigen and e antigen content, the EC50 value of the compounds was used as an indicator; meanwhile, the cell viability was detected by CellTiter-Glo to evaluate the toxicity of the compounds to cells.
(§2) 3.1. On day 0, PHH (1.32×10^5 cells/well) was seeded into a 48-well plate and incubated overnight at 37° C., 5% CO2.
(§3) 3.3 On the second day, the test compound was diluted to 7 concentrations with 5-fold serial dilution. Reference compound Peg-IFN-α 2a, 7 concentrations with 3-fold serial dilution. Compounds with different concentrations were added to the culture wells, and the wells were double-duplicated wells. The final concentration of DMSO in the culture medium was 2%.
(§4) 3.4 On the 4th, 6th, and 8th day, the culture medium was replaced by a fresh culture medium containing the compound.
(§5) 3.5 After collecting the culture supernatant from the culture well on the 10th day, the cell viability was tested with CellTiter-Glo. A portion of the culture supernatant was collected for ELISA determination to detect the content of hepatitis B virus surface antigen and e antigen; a portion of the sample was collected for extract DNA using a high-throughput DNA purification kit, referring to the product instructions for the specific steps.
Calculation of the percentage of cell viability: % viability=the luminescence value of the sample/the luminescence value of the DMSO control×100.

Series [2] deals with HBV surface antigen (HBsAg). In words: Cryopreserved PHH assay, ELISA of hepatitis B surface antigen in culture supernatant. It counts as cell-based, type D HBV in human primary hepatocytes (PHH). The following applies: Hepatitis B virus, 240 h, read-out: HBsAg EC50. Here is the method:
as §1, §2
(§6) 3.2. On the first day, PHH was infected with type D HBV (concentrated from HepDE19 cell culture supernatant).
as §3, §4, §5
(§7) 3.7 ELISA determination of hepatitis B virus surface antigen and e antigen
(§8) The specific steps can be referred to the product manual, the steps are briefly described as follows: 50 μL of sample and standard was added to the reaction plate respectively, 50 μL of enzyme conjugate was added to each well, the mixture was shaken and mixed well, then kept in a warm bath at 37° C. for 60 minutes, the plate was washed with washing solution for 5 times, 50 μL of the luminescent substrate was added to each well, the mixture was mixed well, and the reaction was carried out in the dark at room temperature for 10 minutes, and finally the chemiluminescence intensity was detected with the instrument.
(§9) Calculation of the inhibition percentage of HBV DNA, HBV surface antigen and e antigen. % Inh.=(1−value of the sample/value of DMSO control)×100.

The next series concerns HBV e antigen (HBeAg). In words: Cryopreserved PHH assay, ELISA of hepatitis B e antigen in culture supernatant. It counts as cell-based, type D HBV in human primary hepatocytes (PHH). The following applies: Hepatitis B virus, 240 h, read-out: HBeAg EC50. The protocol: as §1, §2, §6, §3, §4, §5, §7, §8, §9
Background: An ELISA detects its analyte on a solid surface through an enzyme-linked reagent.

The test system of the next series is HBV DNA. In words: Cryopreserved PHH assay, real-time qPCR of HBV DNA in culture supernatant. It counts as cell-based, type D HBV in human primary hepatocytes (PHH). The following applies: Hepatitis B virus, 240 h; PHH infected with type D HBV, supernatant day 10, qPCR. Here is the method: as §1, §2, §6, §3, §4, §5
3.6 Quantitative PCR to detect the content of HBV DNA
The qPCR reaction mixture, sample and standard were added to the 384 well reaction plate. PCR reactions: 95° C., 10 min; 95° C., 15 sec, 60° C., 1 min, 40 cycles.
as §9
For orientation: Quantitative PCR measures a nucleic acid by following its amplification.

For the compound `O=C(O)c1ccc(-c2ccc(-c3cc(=O)c4cccc(Cl)c4o3)cc2)cc1` [Compound I-14, 4′-(8-chloro-4-oxo-4H-benzopyran-2-yl)-[1.1′-biphenyl)-4-carboxylic acid], the half-maximal cytotoxic concentration (CC50) at 8 days in series [1] was over 50000 nM. Besides, the EC50 is over 50000 nM in series [2], over 20000 nM in the series with HBV e antigen (HBeAg) and over 20000 nM in the series on HBV DNA.
For the compound `CC1(C)N=C(c2nc(-c3ccc(C(=O)O)cc3F)cs2)Nc2ccccc21` [Compound I-38, 4-(2-(4,4-dimethyl-1,4-dihydroquinazolin-2-yl)thiazol-4-yl)-3-flurobenzoic acid], the cytotoxic concentration (CC50) at 8 days in series [1] is over 50000 nM. Moreover, the results for the EC50 (in series [2]; in the series with HBV e antigen (HBeAg); in the series with HBV DNA) were 92 nM, 12 nM and 16 nM, respectively.
For `CC1(C)N=C(c2nc(-c3ccc(C(=O)O)cc3)cs2)Nc2ccc(Cl)cc21` [Compound I-27, 4-(2-(6-chloro-4,4-dimethyl-1,4-dihydroquinazolin-2-yl)thiazol-4-yl)benzoic acid] the same measures were over 50000 nM, over 50000 nM, 21.1 nM and 16.7 nM.
For `CC1(C)N=C(c2nc(-c3ccc(C(N)=O)cc3)cs2)Nc2ccccc21` [Compound I-71, 4-(2-(4,4-dimethyl-1,4-dihydroquinazolin-2-yl)thiazol-4-yl)benzamide] the same measures were over 50000 nM, 92.4 nM, 14.7 nM and 31.6 nM.
The matching figures for `O=C(O)c1ccc(-c2csc(C3=NC4(CC4)c4cccc(Cl)c4N3)n2)cc1` [Compound I-5, 4-(2-(8′-chloro-1′H-spiro[cyclopropyl-1,4′-quinazolin]-2′-yl)thiazol-4-yl)benzoic acid]: over 50000 nM, 105 nM, 9 nM and 11 nM.
As to `CC1(C)N=C(c2nc(-c3ccc(-c4nnn[nH]4)cc3)cs2)Nc2ccccc21` [Compound I-72], the CC50 at 8 days in series [1] is over 50000 nM. In addition, the values for the concentration for a half-maximal effect (EC50) (in series [2]; with HBV e antigen (HBeAg); in the series on HBV DNA) were 17500 nM, 8050 nM and 8090 nM, respectively.
For `CC1(C)N=C(c2nc(-c3ccc(C(=O)O)cc3)cs2)Nc2c(F)cccc21` [Compound I-21, 4-(2-(8-fluoro-4,4-dimethyl-1,4-dihydroquinazolin-2-yl)thiazol-4-yl)benzoic acid] the same measures were over 50000 nM, 16.5 nM, 4.8 nM and 6.9 nM.
The matching figures for `CC1(C)N=C(c2ccc(-c3ccc(C(=O)O)cc3)cc2F)Nc2c(Cl)cccc21` [Compound I-46, 4′-(8-chloro-4,4-dimethyl-1,4-dihydroquinazolin-2-yl)-3′-fluoro-[1.1′-biphenyl]-4-carboxylic acid]: over 50000 nM, over 50000 nM, 6320 nM and 48800 nM.
For `CC1(C)N=C(c2cc(-c3ccc(C(=O)O)cc3)co2)Nc2c(Cl)cccc21` [Compound I-50, 4-(5-(8-chloro-4,4-dimethyl-1,4-dihydroquinazolin-2-yl)furan-3-yl)benzoic acid] the same measures were over 50000 nM, 102 nM, 53.7 nM and 77.5 nM.
`CC1(C)N=C(c2nc(-c3ccc(C(=O)O)nc3)cs2)Nc2ccccc21` [Compound I-35, 5-(2-(4,4-dimethyl-1,4-dihydroquinazolin-2-yl)thiazol-4-yl)pyridin-2-carboxylic acid] came in with a CC50 at 8 days in series [1] of over 50000 nM. Also, the EC50 amounted to 1030 nM in series [2], 339 nM in the series with HBV e antigen (HBeAg) and 1130 nM with HBV DNA.
The matching figures for `CC1N=C(c2ccc(-c3ccc(C(=O)O)cc3)cc2)Nc2c(Cl)cccc21` (stereo not shown) [Compound I-43, 4′-(8-chloro-4-methyl-1,4-dihydroquinazolin-2-yl)-[1.1′-biphenyl]-4-carboxylic acid]: over 50000 nM, over 50000 nM, 40800 nM and over 50000 nM.
The matching figures for `CC1(C)N=C(c2nc(-c3ccc(C(=O)NS(C)(=O)=O)cc3)cs2)Nc2ccccc21` [Compound I-66]: over 50000 nM, 369 nM, 31.7 nM and 30.4 nM.
For `O=C(O)c1ccc(-c2csc(-c3cc(=O)c4cccc(Cl)c4o3)n2)cc1` [Compound I-19, 4-(2-(8-chloro-4-oxo-4H-benzopyran-2-yl)thiazol-4-yl)benzoic acid] the same measures were over 50000 nM, 39600 nM, about 15000 nM and 28400 nM.
The compound `CC1(C)N=C(c2ncc(-c3ccc(C(=O)O)cc3)cn2)Nc2c(Cl)cccc21` [Compound I-49, 4-(2-(8-chloro-4,4-dimethyl-1,4-dihydroquinazolin-2-yl)pyrimidin-5-yl)benzoic acid] showed a cytotoxic concentration (CC50) at 8 days in series [1] of over 50000 nM. Moreover, the EC50 was over 50000 nM in series [2], 41300 nM in the series on HBV e antigen (HBeAg) and 10900 nM in the series on HBV DNA.
`CC1(C)N=C(c2nc(-c3ccc(C(=O)O)cc3)cs2)Nc2cc(Cl)ccc21` [Compound I-25, 4-(2-(7-chloro-4,4-dimethyl-1,4-dihydroquinazolin-2-yl)thiazol-4-yl)benzoic acid] gave a cytotoxic concentration (CC50) at 8 days in series [1] of over 50000 nM. For the same compound, the half-maximal effective concentration (EC50) is 440 nM in series [2], 63.2 nM with HBV e antigen (HBeAg) and 98.8 nM in the series with HBV DNA.
The matching figures for `O=C(O)c1ccc(-c2csc(C3=NCc4cccc(Cl)c4N3)n2)cc1` [Compound I-1, 4-(2-(8-chloro-1,4-dihydroquinazolin-2-yl)thiazol-4-yl)benzoic acid]: over 50000 nM, 38100 nM, 18100 nM and 22200 nM.
The matching figures for `CC1(C)N=C(c2nc(-c3ccc(C(=O)O)cc3)co2)Nc2c(Cl)cccc21` [Compound I-53, 4-(2-(8-chloro-4,4-dimethyl-1,4-dihydroquinazolin-2-yl)oxazol-4-yl)benzoic acid]: over 50000 nM, 115 nM, 5.6 nM and 8.4 nM.
For `CCC1(CC)N=C(c2nc(-c3ccc(C(=O)O)cc3)cs2)Nc2ccccc21` [Compound I-69, 4-(2-(4,4-diethyl-1,4-dihydroquinazolin-2-yl)thiazol-4-yl)benzoic acid], the half-maximal cytotoxic concentration (CC50) at 8 days in series [1] was over 50000 nM. Also, the EC50 in series [2] was 56.3 nM; in the series with HBV e antigen (HBeAg), 11.3 nM; in the series with HBV DNA it was 17.1 nM.
For `CC1(C)N=C(c2ccc(-c3ccc(C(=O)O)cc3)cn2)Nc2c(Cl)cccc21` [Compound I-48, 4-(6-(8-chloro-4,4-dimethyl-1,4-dihydroquinazolin-2-yl)pyridin-3-yl)benzoic acid] the same measures were over 50000 nM, over 50000 nM, 426 nM and 4020 nM.
On to `CC1(C)N=C(c2nc(-c3ccc(C(=O)O)cc3)c[nH]2)Nc2ccccc21` [Compound I-54, 4-(2-(4,4-dimethyl-1,4-dihydroquinazolin-2-yl)-1H-imidazol-4-yl)benzoic acid], for which the 50% cytotoxic concentration (CC50) at 8 days in series [1] was over 50000 nM. Also, the EC50 was 326 nM in series [2], 41 nM in the series on HBV e antigen (HBeAg) and 25 nM in the series on HBV DNA.
For `COc1cc(-c2csc(C3=NC(C)(C)c4ccccc4N3)n2)ccc1C(=O)O` [Compound I-40, 4-(2-(4,4-dimethyl-1,4-dihydroquinazolin-2-yl)thiazol-4-yl)-2-flurobenzoic acid] the same measures were over 50000 nM, 302 nM, 34 nM and 31 nM.
For `CC1(C)N=C(c2nc(-c3cccc(C(=O)O)c3)cs2)Nc2c(Cl)cccc21` [Compound I-36, 3-(2-(8-chloro-4,4-dimethyl-1,4-dihydroquinazolin-2-yl)thiazol-4-yl)benzoic acid] the same measures were over 50000 nM, over 50000 nM, over 50000 nM and 9960 nM.

Broadly, the CC50 is the concentration that lowers cell viability or growth by half. A higher CC50 goes with lower toxicity to the cells. In general, EC50 refers to the concentration at which the effect is half-maximal.

The values are drawn from patent publication US11661420B2 (NANJING HEPO PHARMACEUTICAL CO., LTD, priority 2019, dated 2023).
